From patent US20090111781A1, “Use of Cymipristone Type Compounds in Aids Treatment” (SHANGHAI THREE-ALLIANCE BIOTECHNOLOGIES CO., LTD., priority 2005, published 2009) come the findings set out here.

The structures appear in SMILES notation.

The target in data set [1] is T1, mineralocorticoid receptor (MR) (Homo sapiens, UniProt P08235).
T1 sequence (P08235 1-984): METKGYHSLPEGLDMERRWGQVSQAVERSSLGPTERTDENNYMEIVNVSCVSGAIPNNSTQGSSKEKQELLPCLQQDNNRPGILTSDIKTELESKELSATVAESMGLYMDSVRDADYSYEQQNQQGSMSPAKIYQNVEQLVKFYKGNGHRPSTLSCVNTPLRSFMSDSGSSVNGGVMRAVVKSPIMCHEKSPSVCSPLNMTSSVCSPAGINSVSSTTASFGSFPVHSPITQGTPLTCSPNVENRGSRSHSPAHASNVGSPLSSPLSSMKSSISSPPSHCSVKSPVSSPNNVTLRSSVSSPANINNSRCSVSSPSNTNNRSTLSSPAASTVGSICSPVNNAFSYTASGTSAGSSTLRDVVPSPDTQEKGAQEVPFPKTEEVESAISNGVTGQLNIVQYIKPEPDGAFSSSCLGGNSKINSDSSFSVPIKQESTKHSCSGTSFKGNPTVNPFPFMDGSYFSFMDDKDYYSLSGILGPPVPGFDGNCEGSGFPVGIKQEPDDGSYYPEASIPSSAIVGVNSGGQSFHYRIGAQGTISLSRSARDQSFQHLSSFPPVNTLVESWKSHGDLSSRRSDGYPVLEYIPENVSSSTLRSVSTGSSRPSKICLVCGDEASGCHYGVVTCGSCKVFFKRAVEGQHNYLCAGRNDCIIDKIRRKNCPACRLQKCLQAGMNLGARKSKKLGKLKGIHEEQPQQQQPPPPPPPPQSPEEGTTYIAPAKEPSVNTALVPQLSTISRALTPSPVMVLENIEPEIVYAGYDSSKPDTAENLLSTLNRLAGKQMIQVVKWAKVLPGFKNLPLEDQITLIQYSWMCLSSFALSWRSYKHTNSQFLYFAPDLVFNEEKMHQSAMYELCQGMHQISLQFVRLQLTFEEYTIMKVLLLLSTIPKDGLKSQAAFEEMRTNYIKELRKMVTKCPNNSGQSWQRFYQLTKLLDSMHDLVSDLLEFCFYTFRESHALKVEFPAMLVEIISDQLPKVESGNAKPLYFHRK
The data set can be described thus: Binding activity on human nuclear receptor MR. The following applies: n = 4. The protocol: Buffer solution is composed of 25 mM NaPO4, 20 mM NaMoO4, 10 mM KF and 10% glycerol (pH=7.3) and stored under 4° C. Stock solution is prepared with CHAPS and DTT and stored under −20° C. […] Add 2.5 μl/hole into 96-pore plate. Take out appropriate amount of buffer solution reserve into solution to make the final concentration of CHAPS and DDT to become 0.25 mM and 2 mM respectively. Add protease inhibitors (aprotinin and leupeptin) to make its final concentration to become 1 μg/μl, and place in an ice bath. After adding human nuclear receptor GR (1:8), PR (1:100), ER (1:2000), AR (1:200) and MR (1:40) into the reaction system respectively, adequately mix suitable quantity of [^3H]-dexamethasone, [^3H]-progesterone, [^3H]-estradiol and [^3H]-DHT (from Amersham), rapidly add into 96-pore plate (100 μl/pore) and incubate overnight under 4° C. On the next day, add 25 μl of hydroxyapatite suspension into each pore and mix with shaking. After incubating for 10 min, separate by centrifuge for 3 min at 2500 rpm. The precipitate is washed with 100 μl of buffer solution and separated by centrifuge twice. Add 150 μl of scintillation solution (from Perkin Elmer) into each pore, mix with shaking and count by MicroBeta counter.

Data set [2] has as its target T2, human glucocorticoid receptor (Homo sapiens, UniProt P04150).
T2 construct: expressed in transfected cells; host or cells: CV-1 cells
T2 sequence (P04150 1-777): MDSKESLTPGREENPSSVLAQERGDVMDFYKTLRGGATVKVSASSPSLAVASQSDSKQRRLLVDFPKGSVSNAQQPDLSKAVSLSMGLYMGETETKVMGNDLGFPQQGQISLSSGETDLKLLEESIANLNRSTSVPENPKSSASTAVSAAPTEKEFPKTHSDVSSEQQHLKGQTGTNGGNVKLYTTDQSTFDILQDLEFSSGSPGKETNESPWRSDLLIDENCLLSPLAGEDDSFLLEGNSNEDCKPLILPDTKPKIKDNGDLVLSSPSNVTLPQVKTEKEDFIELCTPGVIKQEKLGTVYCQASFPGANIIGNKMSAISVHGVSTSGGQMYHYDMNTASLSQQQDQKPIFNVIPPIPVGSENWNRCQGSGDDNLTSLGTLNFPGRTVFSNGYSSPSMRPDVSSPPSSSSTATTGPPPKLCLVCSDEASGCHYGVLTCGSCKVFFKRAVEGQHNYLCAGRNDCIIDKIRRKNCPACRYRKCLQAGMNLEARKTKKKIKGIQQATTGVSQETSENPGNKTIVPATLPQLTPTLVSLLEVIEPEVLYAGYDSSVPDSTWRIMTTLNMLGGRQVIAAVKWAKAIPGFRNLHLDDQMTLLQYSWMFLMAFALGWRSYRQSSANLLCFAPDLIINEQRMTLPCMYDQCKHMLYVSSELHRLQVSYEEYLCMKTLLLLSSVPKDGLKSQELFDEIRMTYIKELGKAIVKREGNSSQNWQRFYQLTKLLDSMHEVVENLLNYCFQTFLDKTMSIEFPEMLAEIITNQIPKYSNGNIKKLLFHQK
The data set can be described thus: Antagonism on dexamethasone in CV-1 cells cotransfected with GR and luciferase reporter. The class given is cell-based. The protocol: Inoculate (6×10^5) of CV-1 cells into cell culture dish of 60 mm diameter using phenol red-free low-sugar DMEM containing 10% FBS as culture medium and incubate overnight under 37° C. and 5% CO2. Suction according to 1:5 ratio pipet 2 μg of plasmid carried GR genes and luciferase reporting genes, cotransfect CV-1 cells with FuGene 6 transfection reagent (from Roche), and incubate for 8 hours under above conditions, Inoculate the transfected cells into 96-pore micro culture plate, 8000 cells/100 μl/pore, and incubate cells to adhibit on the wall of dish. […] Discard the culture liquid, wash the cells twice with PBS, and pipet off all residual PBS. fragment the cells by CCLR Assay Kit (from Progema) for 15 min. Add 20 μl of fragmentation solution into 96 pore cell culture plate with white edge and white bottom, add CCLR substrate (from Progema), 100 μl/pore, and immediately detect the chemical luminescence count value caused by activated luciferase on Wallac 1420 Multilabel Counter.

Data set [3] can be described thus: Cytotoxicity in MT-4 cell culture by cytopathic method (CPE). The class given is cell-based, human. Particulars: human, MT-4 cells infected with HIV-1 IIIB, read-out: Cytotoxicity TC50, CPE. The method, then:
(§1) Set virus TCID50 determination group and cell control group. Each concentration is duplicated in two pore. Incubate under 37° C., 5% CO2 and saturated humidity in an incubator. Daily observe the cytopathy in above culture plate by microscope, record the degree of cytopathy with routine method, and calculate the 50% toxic concentration (TC50) and maximum nontoxic concentration (TC0) of drug according to Reed & Muench method. […] [formula]

The test system of data set [4] is MT-4 cells. The data set is described as above. The class given is cell-based, human. The protocol: as §1

Broadly, the IC50 is the concentration that inhibits the measured activity by half. Higher therefore signals weaker potency. As for `CC#C[C@]1(O)CC[C@H]2[C@@H]3CCC4=CC(=O)CCC4=C3[C@@H](c3ccc(N(C)C4CCCCC4)cc3)C[C@@]21C` [Cymipristone, 11β-[4-(N-methyl-N-cyclohexylamino)phenyl]-17α-(1-propynyl)-17β-hydroxyl-4,9-estradiene-3-one], the IC50 was greater than 2000 nM in data set [1] and 0.26 ± 0.02 nM in data set [2]. Besides, the “Antagonistic activity on human glucocorticoid receptor function caused by dexamethasone (in words)” value in data set [2] (gene cotransfected live cells) is reported as “significant antagonistic activity”. The CC50 in data set [3] was found to be 15500 nM. The “Cytotoxicity TC50, CPE” value in data set [4] came to 7.704 µg/mL.
